{"source": "patent US20260000763A1", "about": "“Methods of Manufacturing Therapeutic Cells” (The Board of Trustees of the Leland Stanford Junior …, priority 2022, published 2026)", "key": {"GD2 CAR T cells": {"test_system": "GD2 CAR T cells", "test": "Large-scale manufacturing of GD2.bbz CAR T cells in G-Rex system in regular or inosine media", "assay_type": "cell-based", "method": "Enriched CD4/CD8+ T cells from a healthy donor were cultured in regular or inosine-containing media in the G-Rex system. Cells were analyzed at days 7 post-activation. A: Scheme of the large scale experiment. B: Expansion of GD2 CAR T cells manufactured in control vs inosine-containing media. N=1 out of two donors is shown. C: Number of CAR+ T cells at the day 7 post activation. D: Viability of T cells. E: Percentage of CAR+ and CD4 vs CD8 T cells. Data from one representative donor is shown. N=2. F: Relative frequency of terminally differentiated effector (EMRA; CD45RA+ CCR7-), naïve (CD45RA+ CCR7+), central memory (CM; CD45RA-CCR7+), and effector memory (EM; CD45RA-CCR7-) cells in CD8+ control or inosine-grown GD2 CAR T cells. G: IL-2 and IFNγ secretion by CAR T cells stimulated with 143b, mg63.3 or Nalm6-GD2 tumor lines. […] P values were determined by unpaired two-tailed t-tests.\nFIG. 13A-13H: Clinical scale manufacturing of clinical grade GD2-CAR T cells using media containing inosine, improves CAR product quality. A: Schematic of large-scale manufacturing of GD2.bbz-CAR+ T cells in a semi-closed G-Rex system in glucose-or inosine-containing media. 7 days post-activation, transduction efficiency, percentage of viable cells, and CD4/CD8 ratio of GD2+ cells were assessed by flow cytometry. […] B: Expansion of total viable T cells manufactured in control (black) vs. inosine (green)-containing media and (Right) corresponding number of CAR+ cells at day 7. […] C: IL-2 and IFNg secretion by CAR T cells stimulated for 24 hrs with 143b, mg63.3 or Nalm6-GD2 tumor lines. […] D: NSG mice were injected with 1×10^6 Nalm6 leukemia cells. On day 3 post-tumor injection, 2×10^6 of mock or GD2.bbz-CAR T cells manufactured in the presence of inosine or in regular media were transferred intravenously. Tumor growth was monitored by bioluminescent imaging. […] P values determined at day 43 by using Mann-Whitney test. […] E: Concentration of CD45+ T cells detected in blood of mice at D33 post-CAR T cell injection. […] F: Schematic of the experimental design. G: GD2.bbz-CAR T cells grown in media containing indicated inosine concentration between day 3 and day 10 post-activation and stimulated with 143b tumor. IL-2 and IFNg secretion after 24 hrs of co-culture was measured. Data are mean±s.d. of duplicate or triplicate wells. Representative of n=3 donors shown. […] Reprograming is due to an increase in glutaminolysis and polyamine synthesis and downregulation of CD73, FOXP3, A2aR and c-AMP response transcription factors.\nIn this example, the in vivo anti-tumor potency of CAR T cells manufactured in the presence or absence of inosine was assessed. In this particular example, the feasibility of manufacturing GD2 CAR T cells in inosine media in the clinical setting was assessed. 2.5×10^8 enriched CD4+ and CD8+ T cells from a healthy donor were activated with anti-CD3/CD28-coated beads and transduced using clinical grade GD2.bbz vector at MOI=10 (FIG. 6A). From day 3, T cells were continued to be cultured in regular-or inosine containing media in a semi-closed culture system using G-Rex platform. […] There was no difference in product viability (FIG. 6D), nor transduction efficiency nor CD4 vs CD8 ratio (FIG. 6E).\nA total of 2.5×10^8 enriched CD4+ and CD8+ T cells from a healthy donor were activated with anti-CD3/CD28-coated beads and transduced using clinical grade GD2-CAR vector at an MOI of 10 (FIG. 13A). On day 3, T cells were maintained in standard RPMI media containing glucose or switched to inosine-containing RPMI without glucose in a semi-closed G-Rex culture platform."}, "Nalm6 tumor line": {"test_system": "Nalm6 tumor line", "test": "Co-culture of CD19.28 CAR T cells with Nalm6: IncuCyte killing and cytokine ELISA", "assay_type": "cell-based", "method": "In this example, CD19.28 CAR T cells were cultured in regular complete RPMI media until day 4, and then the cells were split between 11 mM glucose-(CTR) or 11 mM inosine-(INO) containing media (unless stated otherwise). A: Annexin 5 staining was performed at day 17 post-activation. Representative histograms of n=3 donors are shown. B: Surface CD19.28 CAR expression at day 14 post-activation. C: MFI of CAR molecules on CD19.28z CAR T cell surface at day 14 post activation. D: Ratio of CD4+vs CD8+CD19.28 CAR T cells at day 14 post-activation. E: CD19.28z CAR T cells were co-cultured with cells of the Nalm6 tumor line (1:8 E: T) for 75 hrs in an IncuCyte assay. […] Representative donor of n=3 is shown. F: Control media was replaced by INO+ media at the indicated day post activation. At day 14, cells were stimulated with Nalm6 tumor line, and IL-2 and IFNγ secretion was assessed by ELISA. […] For A and B, P values were determined by paired two-tailed t-tests. […] For F and G, P values were determined by unpaired two-tailed t-tests.\nIn this example, CD19.28 CAR T cells were generated using a retroviral vector and at day 4 post-activation, the cells were split between 11 mM glucose-(CTR) or 11 mM inosine-(INO) containing media (unless stated otherwise). Tested first was whether the absence of glucose in the culture media has a negative effect on the viability of CAR T cells.\nTumor antigen density is one of the most important factors affecting the efficacy of CAR T immunotherapy. Therefore, assessed next was whether growing CAR T cells in inosine-containing media improves their effector function against low antigen expressing tumor lines."}, "CD8+ HA-CAR T cells": {"test_system": "CD8+ HA-CAR T cells", "test": "ATACseq chromatin accessibility of CD8+ HA- and HA-INO-CAR T cells (ChromVAR, HOMER)", "assay_type": "cell-based, human", "from_the_text": "Concatenated samples from n=3 donors. […] (Left) Dot plots of representative donor shown."}}, "data": [{"compound": "O=c1[nH]cnc2c1ncn2[C@@H]1O[C@H](CO)[C@@H](O)[C@H]1O", "note": "[inosine, Inosine]", "values": [{"measurement": "total cells after expansion", "setting": "GD2 CAR T cells; G-Rex, inosine media from day 3, day 7, one donor (FIG. 6B)", "value": "384.3×10^6 total cells"}, {"measurement": "total cell yield", "setting": "GD2 CAR T cells; day 7, INO RPMI without glucose from day 3, n=2 donors, s.e.m.", "value": "238.5×10^6+145.8"}, {"measurement": "CD4 vs CD8 ratio", "setting": "GD2 CAR T cells; day 7, inosine vs control", "value": "no difference"}, {"measurement": "frequency of naive and central memory GD2 CAR T cells", "setting": "GD2 CAR T cells; day 7, inosine vs control", "value": "higher frequency"}, {"measurement": "product viability", "setting": "GD2 CAR T cells; day 7, inosine vs control", "value": "no difference"}, {"measurement": "transduction efficiency", "setting": "GD2 CAR T cells; day 7, inosine vs control", "value": "no difference"}, {"measurement": "tumor killing", "setting": "Nalm6 tumor line; Nalm6, 1:8 E:T, 75 hrs IncuCyte, cells expanded in 11 mM inosine vs glucose", "value": "increased tumor killing"}, {"measurement": "secretion of IFNγ", "setting": "Nalm6 tumor line; Nalm6 expressing medium or low levels of surface CD19, day 14", "value": "significantly increased secretion"}, {"measurement": "effector cytokine secretion (IL-2, IFNγ)", "setting": "Nalm6 tumor line; stimulated with Nalm6 at day 14, ELISA", "value": "increased"}, {"measurement": "accessibility of RUNT, IRF and RHD family TF binding motifs", "setting": "CD8+ HA-CAR T cells; ChromVAR and HOMER", "value": "increased accessibility"}, {"measurement": "genomic regions with changed chromatin accessibility", "setting": "CD8+ HA-CAR T cells; D14 CD8+ cells, three individuals", "value": "more than 10,000 genomic regions"}, {"measurement": "PC1 variance", "setting": "CD8+ HA-CAR T cells; PCA of ATACseq", "value": 57, "unit": "%"}]}]}
